# Measured values published in BindingDB's records for doi:10.1021/acsmedchemlett.0c00432 (Vanderbilt University, 2020).
# Biological target: Metabotropic glutamate receptor 7 (Rattus norvegicus, UniProt P35400)
# Assay: Positive allosteric modulation of rat mGlu7 receptor expressed in HEK293 cells co-expressing Gai5 assessed as potentiation of L-AP4-induced calcium mobilization preincubated for 140 secs and treated with EC20 L-AP4 for 125 secs and followed by subsequent addition of EC80 L-AP4 by Fluo-4-AM dye based fluorescence assay
# Metabotropic glutamate receptor 7, sequence (P35400 whole entry): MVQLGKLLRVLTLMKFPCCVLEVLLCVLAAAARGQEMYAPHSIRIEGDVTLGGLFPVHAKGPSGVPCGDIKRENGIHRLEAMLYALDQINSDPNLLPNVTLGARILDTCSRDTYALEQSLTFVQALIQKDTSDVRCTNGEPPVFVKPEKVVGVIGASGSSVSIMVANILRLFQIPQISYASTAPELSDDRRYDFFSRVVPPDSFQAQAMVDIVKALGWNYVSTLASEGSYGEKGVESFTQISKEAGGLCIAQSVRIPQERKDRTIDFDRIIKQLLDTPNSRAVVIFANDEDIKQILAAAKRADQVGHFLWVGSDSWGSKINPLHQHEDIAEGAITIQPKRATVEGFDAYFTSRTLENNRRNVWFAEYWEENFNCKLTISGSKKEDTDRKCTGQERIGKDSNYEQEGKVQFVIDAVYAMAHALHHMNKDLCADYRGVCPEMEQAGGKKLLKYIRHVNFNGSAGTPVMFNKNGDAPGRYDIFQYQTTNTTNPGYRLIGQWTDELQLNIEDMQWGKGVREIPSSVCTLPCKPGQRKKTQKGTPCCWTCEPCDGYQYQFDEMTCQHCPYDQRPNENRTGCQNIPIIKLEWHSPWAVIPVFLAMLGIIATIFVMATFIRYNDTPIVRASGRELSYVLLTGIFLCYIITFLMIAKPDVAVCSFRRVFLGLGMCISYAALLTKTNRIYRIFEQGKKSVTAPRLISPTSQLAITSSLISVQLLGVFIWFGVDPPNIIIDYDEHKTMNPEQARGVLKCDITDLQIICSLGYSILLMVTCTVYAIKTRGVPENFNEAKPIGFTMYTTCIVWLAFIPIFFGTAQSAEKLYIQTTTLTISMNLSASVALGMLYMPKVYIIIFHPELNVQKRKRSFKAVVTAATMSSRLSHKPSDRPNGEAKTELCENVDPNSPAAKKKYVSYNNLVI
compound,measurement,value
N#Cc1cnc2c(OC3CCOC3)cccc2c1N1CCN(c2ccccc2F)CC1 (stereo unspecified),EC50,1540 nM
